The values below are quoted from earlier work in patent US20240041762A1 (Zambon S.p.A., priority 2020, published 2024).

Each structure is given as a SMILES string.

In one data set the test system is invasive aspergillosis. As to conditions: in vivo.

As for `CCC(C)n1ncn(-c2ccc(N3CCN(c4ccc(OCC5COC(Cn6cncn6)(c6ccc(Cl)cc6Cl)O5)cc4)CC3)cc2)c1=O` (stereo not shown) [itraconazole], where the note is “healthy volunteers”, the “ELF exposure as fraction of the plasma concentration” value is on record as “approximately ⅓” and the “concentration in the alveolar cells with respect to the plasma concentration” value is “more than double”. Besides, the “concentrations in bronchoalveolar lavage fluid and lung tissue, times lower than plasma” value (other cases) is given as 10 times.
Take `OC(Cn1cncn1)(Cn1cncn1)c1ccc(F)cc1F` [Fluconazole]: the “activity against invasive aspergillosis” value with invasive aspergillosis is “not active”.
